In patent US12173088B2, “Anti-microbial peptides” (priority 2018, dated 2024):
Like-named read-outs stand apart in the source and are kept apart here. Peptide text beside a SMILES is read from it.

Tests used:
S. aureus USA300 = format: in vivo, Staphylococcus aureus
Procedure: Female C57BL/6 mice (6 weeks old) were purchased from Charles River. After environment adaptation, mice were induced neutropenic by administering two doses of cyclophosphamide on day 1 (150 mg/kg) and Day 4 (100 mg/kg). This cyclophosphamide administration was skipped for experiments using non-neutropenic mice (i.e., normal mice). On day 5, mice were infected with S. aureus USA300 LAC (˜2×10^6 CFU per mouse) via intraperitoneal injection (i.p.). For the treatment groups, mice were i.p. treated 2 hours post infection with peptides at a single dose of 5 mg/kg. Both positive and negative controls were included. At the end of the experiments, all animals were sacrificed according to institutional guidelines. Organs, including spleen, lung, kidney, and liver, were harvested, weighed, placed in sterile PBS and stored on ice. Harvested animal organs were subsequently homogenized using homogenizer (Omni, Kennesaw, GA). Proper dilutions, especially for untreated control groups, were made to get countable colonies. Blood agar plates were then incubated overnight at 37° C. The bacteria grown on plates were enumerated and plotted using the Graph pad Prism software.
Female C57BL/6 or Balb/c mice (6 weeks old) were purchased from Charles River. The mice were induced neutropenic by administering two doses of cyclophosphamide on day 1 (150 mg/kg) and Day 4 (100 mg/kg). On day 5, mice were infected with S. aureus USA300 (˜2×10^6 CFU per mouse) or K. pneumoniae E406-17 (˜5×10^5 CFU per mouse) via intraperitoneal injection (i.p.). For the treatment groups, mice were i.p. or intravenous (i.v.) treated 2 hours post infection with peptides at a single dose of 5, 10, or 15 mg/kg. Both positive and negative controls are used. At the end of the experiments, all animals were sacrificed according to institutional guidelines. […] The CFU of each mouse was plotted as an individual point and error bars represent the deviation within the experimental group. * p<0.05 ** p<0.01, ***p<0.001 and NS represents no significance (determined by Mann-Whitney test).

[1] = tested on: S. aureus USA300 biofilms; conditions: 25 μM; 24 hour formed static biofilms
Procedure: The antibiofilm activity of the peptide against 24 hours established biofilms was evaluated. In short, S. aureus USA300 (10^5 CFU/mL) was made from exponential phase bacteria in TSB media and 200 μL was distributed to each well of the microtiter plate (Corning Costar Cat No. 3595). The plates were incubated at 37° C. for 24 hours to form biofilm. Culture treated with water served as a positive control while media without bacterial inoculation served as the negative control. Media was then pipetted out and the attached biofilms were washed with 1×PBS to remove the planktonic bacteria. Each well of the plate was then filled with 20 μL of 10× peptide solution and 180 μL of fresh TSB media and the plates were further incubated at 37° C. for 24 hours. Media was then pipetted out and the wells were washed with 1×PBS to remove planktonic cells. Live cells in the biofilms were then quantitated using XTT [2,3-bis(2-methyloxy-4-nitro-5-sulfophenyl)-2H-tertazolium-5-carboxanilide] assay by following the manufacturer's instructions with modifications. 180 μL of fresh TSB and 20 μL of XTT solution was added to each well and the plates were again incubated at 37° C. for 2 hours. Absorbance at 450 nm (only media with XTT containing wells served as the blank) was obtained using a ChroMate® microtiter plate reader. […]

E. coli ampC E416-7 = format: cell-based, Escherichia coli; conditions: Table 7
From the text: The bacterial strains used include the Gram-positive strains Staphylococcus aureus USA300 LAC, S. epidermidis 1457, and Bacillus subtilis 168, as well as the Gram-negative isolates Escherichia coli K12 and Acinetobacter baumannii B2367-12. Additional, drug resistance strains include Gram-positive Enterococcus faecium V286-17 (VRE) and S. aureus M838-17 (MRSA) and Gram-negative E. coli E423-17, E. coli E416-17 (ampC), and P. aeruginosa E411-17. Bacteria were cultivated in tryptic soy broth (TSB) (BD Bioscience, MD).
The antibacterial activity of peptides was evaluated using a standard broth microdilution protocol with minor modifications as described (Mishra, et al. (2012) J. Am. Chem. Soc., 134:12426-12429). In brief, logarithmic phase bacterial cultures (i.e., optical density at 600 nm≈0.5) were diluted to OD600 0.001 and partitioned into a 96-well polystyrene microplate at 90 μL per well. After treatment with 10 μL of peptide solutions two fold diluted to various concentrations, microplates were incubated at 37° C. overnight and read on a ChroMate® 4300 Microplate Reader at 630 nm (GMI, Ramsey, MN). […] To study the influence of medium conditions on the antimicrobial activity of peptides against S. aureus USA300, up to 200 mM sodium chloride (NaCl), 2 mM of calcium chloride, 5-10% of human serum, mouse plasma, fluid, or supernatants of tissue homogenates were included into the assays.

[2] = tested on: human red blood cells (hRBCs); assay: Hemolytic assay; format: cell-based
Method in brief: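 HL50 marks the peptide level lysing half of a 2% (v/v) suspension of washed human erythrocytes after 1 h at 37 °C. Released hemoglobin measured at 545 nm, scaled between PBS (0%) and Triton X-100 (2% or 1%; 100%). Selectivity index computed as HL50 over MIC.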

in vivo = assay: in vivo
Procedure: The efficacy of the two peptides was also investigated in non-neutropenic mice against S. aureus USA300. A higher bacterial inoculum at 2×10^8 CFU per mouse was used. […] To evaluate the peptide pharmacokinetics (Chhonker, et al. (2018) Biomed. Chromatogr. e4389), the plasma clearance rate of horine after intravenous injection of 10 mg/kg into BALB/c mice was followed.

[3] = Stability in mouse plasma and peritoneal fluid; format: in vitro ADME; conditions: murine peritoneal fluids or plasma for 3 hours
Procedure: Stability of horine and verine was evaluated in the presence of mouse plasma and peritoneal fluid using SDS-PAGE electrophoresis. […] […] The gels were stained using the Coomassie Brilliant Blue G-250 dye.

In the case of `CC(C)C[C@H](NC(=O)[C@H](CC(C)C)NC(=O)[C@H](CCCCN)NC(=O)[C@H](CC(C)C)NC(=O)CNC(=O)[C@H](CC(C)C)NC(=O)[C@H](CO)NC(=O)[C@H](CC(C)C)NC(=O)[C@H](CC(C)C)NC(=O)[C@H](CC(C)C)NC(=O)[C@H](CCCCN)NC(=O)[C@H](CC(C)C)NC(=O)CN)C(N)=O` [DFT561, GLKLLLSLGLKLL] (H-GLKLLLSLGLKLL-NH2; N-terminus and C-terminus assumed), the Killing (S. aureus USA300; USA300, in vivo, 5 mg/kg) was “up to 90%”, the “S. aureus killed in biofilms” value [1] was 60% and the “MIC E. coli ampC E416-7” value (E. coli ampC E416-7) was over 50 µM.
With `CC(C)C[C@H](NC(=O)[C@H](Cc1c[nH]c2ccccc12)NC(=O)[C@H](Cc1c[nH]c2ccccc12)NC(=O)[C@@H](N)Cc1c[nH]c2ccccc12)C(=O)N[C@@H](CCCNC(=N)N)C(=O)N[C@@H](CCCNC(=N)N)C(=O)N[C@@H](CCCNC(=N)N)C(=O)N[C@@H](Cc1c[nH]c2ccccc12)C(N)=O` [Horine, WWWLRRRW] (H-WWWLRRRW-NH2; N-terminus and C-terminus assumed) the HL50 [2] was 150 µM, the “Time to become undetectable in plasma” value (in vivo; 10 mg/kg i.v.) was at most 1 h and the level at 5 min (in vivo; BALB/c, mouse, plasma, iv, 10 mg/kg) was 266 ng/mL. For the same compound, the Stability after incubation [3] was “stable and active”.
With `CN[C@H](CC(C)C)C(=O)N[C@H]1C(=O)N[C@@H](CC(N)=O)C(=O)N[C@H]2C(=O)N[C@H]3C(=O)N[C@H](C(=O)N[C@H](C(=O)O)c4cc(O)cc(O)c4-c4cc3ccc4O)[C@H](O)c3ccc(c(Cl)c3)Oc3cc2cc(c3O[C@@H]2O[C@H](CO)[C@@H](O)[C@H](O)[C@H]2O[C@H]2C[C@](C)(N)[C@H](O)[C@H](C)O2)Oc2ccc(cc2Cl)[C@H]1O` [Vancomycin] the CFU decrease (S. aureus USA300; spleen, lung, kidney, liver, 10 mg/kg, positive control) was 1-4 logs.
With `CC(C)[C@H](NC(=O)[C@H](Cc1c[nH]c2ccccc12)NC(=O)[C@H](Cc1c[nH]c2ccccc12)NC(=O)[C@H](Cc1c[nH]c2ccccc12)NC(=O)[C@H](Cc1c[nH]c2ccccc12)NC(=O)[C@H](CCCNC(=N)N)NC(=O)[C@H](CCCNC(=N)N)NC(=O)[C@@H](N)CCCNC(=N)N)C(N)=O` [Verine, RRRWWWWV] (H-RRRWWWWV-NH2; N-terminus and C-terminus assumed) the HL50 ([2]; Table 12) was 130^2 μM and the Stability after incubation [3] was “stable and active”.
